Reference: patent US20040023922A1, “Lipids for modulating immune response” (priority 2000, published 2004)
Values joined by “and” are separate entries in the source; they are usually repeats but may differ in a detail not shown here. Identical values can stand only once.

System: Female Balb/c mice
Test: Adjuvanticity of lipids: serum anti-KLH IgA, IgG, IgM ELISA (Example 7)
Type: in vivo
Details: for Day 7 Results IgA, score as multiples of the control response / Day 7 Results IgG, score as multiples of the control response / Day 7 Results IgM, score as multiples of the control response: serum day 7 after booster; for Day 7 Results IgA, score as multiples of the control response: 5 μl lipid + 45 μl saline + 50 μl KLH (2 mg/ml), week 0 and week 2; for Day 7 Results IgA, score as multiples of the control response / Day 7 Results IgG, score as multiples of the control response / Day 7 Results IgM, score as multiples of the control response / Day 21 Results IgA, score as multiples of the control response / Day 21 Results IgG, score as multiples of the control response / Day 21 Results IgM, score as multiples of the control response: control KLH + Saline = 1; for Day 21 Results IgA, score as multiples of the control response / Day 21 Results IgG, score as multiples of the control response / Day 21 Results IgM, score as multiples of the control response: serum day 21 after booster; for Ranking Total: sum of the six IgA, IgG, IgM scores of day 7 and day 21, control KLH + Saline = 6
Method: The objective of this study was to investigate the adjuvanticity of 19 different lipids.
Female Balb/c mice, 6-8 weeks and weighing about 20-22 gms were used and maintained on a normal mouse diet throughout the study.
There were 22 groups of mice marked alphabetically from A-V. Group A (8 mice) was the negative control (KLH+Saline), Group B (8 mice) was the positive control (KLH+IFA). Groups C-V were the experimental groups containing 6 mice each. 100 μl of antigen preparation comprising of 5 μl lipid+45 μl saline+50 μl (2 mg/ml KLH) was administered to 20 groups of 6 mice each, on week 0 followed by a boost on week 2.
On day 7 and day 21 after the booster dose, the mice were tail bled, the serum separated, aliquoted and stored at 4° C.
The specific anti-KLH IgG and IgM antibody content of each individual serum sample was determined in an established ELISA assay and standardised against a positive control antiserum obtained by hyperimmunisation of mice with KLH (100 μg) in Freund's incomplete adjuvant. Plates were coated with KLH at 2 μg/ml and incubated with four twofold dilutions of samples (100 μl) at 37° C. for 2 hours. The initial dilution of serum samples was 1:50 for IgA assay and 1:100 for IgG and IgM assays. […] IgA and IgM were used at 1:1000 and IgG at 1:2000 for 2 hours at 37° C. The results were expressed as antibody units calculated from the standard curve obtained from pooled immune mouse serum given an arbitrary antibody value of 100,000 IgA units/ml and 1×10^6 IgG and IgM units/ml. The standard curve was diluted from 1:100 to 1:3200 for IgA, 1:4000 to 1:256,000 for IgG and 1:1000 to 1:32000 for IgM samples. The value for each sample dilution falling on standard curve was calculated and the mean taken as the value for the sample.
Results are given in the form of histograms (FIGS. 9 to 14), plotting the Ig response (units/ml) against the trial grouping. […] The number signifies multiples of the control response.

Row | Structure (SMILES) | Day 7 Results IgA, score as multiples of the control response | Day 7 Results IgG, score as multiples of the control response | Day 7 Results IgM, score as multiples of the control response | Day 21 Results IgA, score as multiples of the control response | Day 21 Results IgG, score as multiples of the control response | Day 21 Results IgM, score as multiples of the control response | Ranking Total | Ranking Total (listed as TpaL)
1 | CCCCCCCCCCCCCCCCC(=O)OC[C@H](COP(=O)([O-])OCC[N+](C)(C)C)OC(=O)CCCCCCCCCCCCCCCC [PCH, L-α-Phosphatidylcholine, diheptadecanoyl] | 18 | 10 | 1 | 2 | 10 | 2 | 43 | 
2 | CCCCCCCCCCCCCCC(=O)OCC(COC(=O)CCCCCCCCCCCCCC)OC(=O)CCCCCCCCCCCCCC [TPeN, Tripentadecanoin] | 11 | 4 | 2 | 3 | 9 | 2 | 31 | 
3 | CCCCCCCCCCCCCC(=O)OCC(COC(=O)CCCCCCCCCCCCC)OC(=O)CCCCCCCCCCCCC [TM, Trymyristin] | 6 | 4 | 1 | 1 | 3 | 1 | 17 and 16 | 
4 | CCCCCCCCCCCCCC(=O)OC[C@H](COP(=O)(O)O)OC(=O)CCCCCCCCCCCCC [PAM, L-α-Phosphatidicacid, dimyristoyl] | 4 | 5 | 1 | 1 | 6 | 1 | 18 | 
5 | CCCCCCCCCCCCCCCCCC(=O)OCC(COP(=O)([O-])OCC[N+](C)(C)C)OC(=O)CCCCCCCCCCCCCCCCC (racemic) [PCS, DL-α-Phosphatidylcholine, distearoyl] | 22 | 8 | 2 | 2 | 13 | 2 | 49 | 
6 | CCCCCCCCCCCCCCCC(=O)OCC(COP(=O)(O)OCCN)OC(=O)CCCCCCCCCCCCCCC (racemic) [PEP, DL-α-Phosphatidylethanolamine, dipalmitoyl] | 9 | 8 | 2 | 2 | 17 | 1 | 40 and 39 | 
7 | CCCCCCCCCCCCCCCCC(=O)OC[C@H](COP(=O)(O)O)OC(=O)CCCCCCCCCCCCCCCC [PAH, L-α-Phosphatidicacid, diheptadecanoyl] | 5 | 4 | 2 | 2 | 6 | 2 | 21 | 
8 | CCCCCCCCCCCCCCCCC(=O)OC[C@H](COP(=O)(O)OCCN)OC(=O)CCCCCCCCCCCCCCCC [PEH, L-α-Phosphatidylethanolamine, diheptadecanoyl] | 4 | 12 | 2 | 2 | 7 | 1 | 28 | 
9 | CCCCCCCCCCCCCCCCCC(=O)OCC(COC(=O)CCCCCCCCCCCCC)OC(=O)CCCCCCCCCCCCCCCCC (racemic) [DSM, 1,2 Distearloyl-3-myristoyl-rac-glycerol] | 26 | 4 | 4 | 3 | 5 | 3 | 45 | 
10 | CCCCCCCCCCCCCCCC(=O)OCC(COP(=O)(O)OC[C@H](N)C(=O)O)OC(=O)CCCCCCCCCCCCCCC (mixture of isomers) [PSP, DL-α-Phosphatidyl-L-serine, dipalmitoyl] | 47 | 2 | 2 | 3 | 14 | 2 | 70 | 
11 | CCCCCCCCCCCCCCC(=O)OC[C@H](COP(=O)([O-])OCC[N+](C)(C)C)OC(=O)CCCCCCCCCCCCCC [PCP, L-α-Phosphatidylcholine, dipentadecanoyl] | 9 | 5 | 2 | 2 | 3 | 1 | 22 | 
12 | CCCCCCCCCCCCCCCCCC(=O)OC[C@H](COP(=O)(O)OCCN)OC(=O)CCCCCCCCCCCCCCCCC [PES, L-α-Phosphatidylethanolamine, distearoyl] | 15 | 6 | 1 | 2 | 7 | 1 | 32 | 
13 | CCCCCCCCCCCCCC(=O)OCC(COP(=O)([O-])OCC[N+](C)(C)C)OC(=O)CCCCCCCCCCCCC (racemic) [PCM, DL-α-Phosphatidylcholine, dimyristoyl] | 4 | 2 | 1 | 1 | 3 | 1 | 12 | 
14 | CCCCCCCCCCCCC/C=C/[C@@H](O)[C@H](CO)NC(=O)CCCCCCCCCCCCCCC [PS, N-Palmitoyl-d-sphigosine] | 35 | 3 | 2 | 4 | 19 | 1 | 64 | 
15 | CCCCCCCCCCCCCCCC(=O)OCC(COC(=O)CCCCCCCCCCCCCCC)OC(=O)CCCCCCCCCCCCCCC [TPaL, Tripalmitin] | 3 | 4 | 1 | 1 | 6 | 1 | 16 | 15
16 | CCCCCCCCCCCCCCCCCC(=O)OCC(COC(=O)CCCCCCCCCCCCCCC)OC(=O)CCCCCCCCCCCCCCCCC (racemic) [DSP, 1,2 Distearoyl-3-palmitoyl-rac-glycerol] | 15 | 7 | 5 | 3 | 8 | 2 | 39 and 40 | 
17 | CCCCCCCCCCCCCC(=O)OC[C@H](COP(=O)(O)OCCN)OC(=O)CCCCCCCCCCCCC [PEM, L-α-Phosphatidylethanolamine, dimyristoyl] | 17 | 7 | 1 | 2 | 6 | 2 | 35 | 
